Measurements reported in PMC8636726 (Synthetic and Systems Biotechnology, 2021).

Biological target: T1, EmbR protein (Mycobacterium tuberculosis, UniProt P9WGJ9)
T1 sequence (P9WGJ9 1-388): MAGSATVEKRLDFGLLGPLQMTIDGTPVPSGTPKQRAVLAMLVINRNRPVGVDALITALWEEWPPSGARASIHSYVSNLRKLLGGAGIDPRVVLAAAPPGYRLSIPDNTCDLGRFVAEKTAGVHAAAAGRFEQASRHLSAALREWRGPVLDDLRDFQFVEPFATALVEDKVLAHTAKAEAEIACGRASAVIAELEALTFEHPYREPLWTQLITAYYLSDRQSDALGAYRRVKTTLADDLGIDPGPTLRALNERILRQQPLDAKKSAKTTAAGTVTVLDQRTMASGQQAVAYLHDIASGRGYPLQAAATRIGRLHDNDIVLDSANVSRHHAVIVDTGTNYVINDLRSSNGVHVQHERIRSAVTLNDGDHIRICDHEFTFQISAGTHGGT
Assay type: binding
Conditions: BLI, clinical TB drugs tested as controls under the same conditions

**Q.** `CC[C@@H](CO)NCCN[C@@H](CC)CO` [EMB, Ethambutol] was tested. Which “binding to EmbR” value did it give?
**A.** Its value is “no significant binding”.

**Q.** With `NNC(=O)c1ccncc1` [INH, isoniazid] as the compound, how does the “binding to EmbR” value read?
**A.** Its value is “no significant binding”.

**Q.** Which “binding to EmbR” value does the source give for `CO[C@H]1/C=C/O[C@@]2(C)Oc3c(C)c(O)c4c(O)c(c(/C=N/N5CCN(C)CC5)c(O)c4c3C2=O)NC(=O)/C(C)=C\C=C\[C@H](C)[C@H](O)[C@@H](C)[C@@H](O)[C@@H](C)[C@H](OC(C)=O)[C@@H]1C` [RIF, rifampicin] here?
**A.** Its value is “no significant binding”.
